Values of other authors in publication PMC9632963, “Preclinical characterization and phase I clinical trial of CT053PTSA targets MET, AXL, and VEGFR2 in patients with advanced solid tumors” (Frontiers in Immunology, 2022).
Read-outs that look alike come from different tables or passages of the source.

How the values were obtained:
[1] = test system: patients; parameters: method as in PMID 30833489; details: 20/50 patients; cited from earlier work
[2] = parameters: method as in PMID 27734291; details: cited from earlier work
[3] = test system: Japanese patients with NSCLC; parameters: method as in PMID 30718102; details: cited from earlier work
[4] = test system: MET; parameters: method as in PMID 18089725; details: NCI-H69 cells; read-out: IC50, phosphorylation of MET; cited from earlier work
[5] = test system: MET; parameters: method as in PMID 18089725; details: HOP92 cells; read-out: IC50, phosphorylation of MET; cited from earlier work

## Cc1ccc(C(=O)Nc2ccc(Oc3cc4cnn(C)c4cc3-c3cn[nH]c3)c(F)c2)c(=O)n1-c1ccc(F)cc1 [merestinib]
[1]
  patients with ≥ grade 3 TRAEs: 40%

## COc1cc2nccc(Oc3ccc(NC(=O)C4(C(=O)Nc5ccc(F)cc5)CC4)cc3)c2cc1OC [cabozantinib]
[2]
  half-life: 108 to 126 h
  median Tmax: 4 h
[3]; 16/23 patients
  patients with ≥ grade 3 AEs: 70%
[3]
  AE: diarrhea: 78%
  AE: hypertension: 87%
  AE: increased alanine aminotransferase: 95%
  AE: increased aspartate aminotransferase: 95%
  AE: palmar-plantar erythrodysesthesia: 100%

## C[C@@H](Oc1cc(-c2cnn(C3CCNCC3)c2)cnc1N)c1c(Cl)ccc(F)c1Cl [crizotinib]
[4]
  IC50: […]
[5]
  IC50: 16 nM
